How the values were obtained:
[1] = target: T1, human recombinant CyPA (Homo sapiens, UniProt P62937); experiment: Rotamase (PPIase) inhibition, chymotrypsin-coupled cuvette assay, human recombinant CyPA; assay type: biochemical; conditions: Table A, value without asterisk: human recombinant CyPA
Description: A number of substrates for rotamase are known in the art or can be derived from those known. Typically, the substrate contacts a sample containing a protein with rotamase activity and the conversion of the substrate is detected after a period of time. The method for detecting conversion of the substrate will vary with the particular substrate chosen. One method has been termed the Ki test (See Harding, et al., Nature, 341:758-760 (1989); and Holt et al., J. Am. Chem. Soc., 115:9923-9938). The cis-trans isomerization of an alanine-proline bond in a model substrate, N-succinyl-Ala-Ala-Pro-Phe-p-nitroanilide (SEQ ID NO: 1), is monitored spectrophotometrically in a chymotrypsin-coupled assay. The action of chymotrypsin releases p-nitroaniline from only the trans form of the substrate. The amount of p-nitroaniline can be monitored in a spectrophotometer, for example. Other methods of detecting the presence of p-nitroaniline can also be used. The inhibition of this reaction caused by different concentrations of inhibitor is determined and the data are analyzed as a change in first-order rate constant as a function of inhibitor concentration, which yields the Ki value.
The following were added to a plastic cuvette: 950 μl of ice cold assay buffer (25 mM HEPES, pH 7.8, 100 mM NaCl), 10 μL of CyP A (2.5 μM in 10 mM Tris-Cl pH 7.5, 100 mM NaCl, 1 mM dithiothreitol), 25 μL of chymotrypsin (50 mg/ml in 1 mM HCl), and 10 μL of test compound, at various concentrations, in dimethyl sulfoxide. The reaction was initiated by the addition of 5 μL of substrate (succinyl-Ala-Phe-Pro-Phe-para-nitroanilide (SEQ ID NO: 1), 5 mg/mL in 470 mM LiCl in trifluoroethanol). The absorbance at 390 nm versus time was monitored for 90 seconds using a spectrophotometer and the rate constants were determined from the absorbance versus time data files.
The IC50 values which were obtained for representative compounds are given in the following Table A, and refer to the concentration that inhibits 50% of the rotamase activity in a sample.
(§1) The Cyclophilin utilized was a human recombinant CyPA, [Yoo et al., J. Mol. Biol., 269 (1997) 780-95].

[2] = target: T1, human recombinant CyPA; experiment: Semiautomated microtiter plate assay of rotamase activity inhibition, human recombinant CyPA; assay type: biochemical; conditions: Table B, value without asterisk: human recombinant CyPA
Experimental: (§2) Rotamase inhibition was determined using a semiautomated microtiter plate assay modification of the above described assay [see Küllertz et al., Clin. Chem. 44, 502-508 (1998)]. All dilutions of CyPA, peptide substrate, and chymotrypsin were made in 35 mM ice-cold HEPES buffer. Fifty μL of CyPA solution is added to 50 μL of the peptide substrate solution (Phe-Pro-Phe p-nitroanilide, 0.16 mg/ml) in a glass microtiter well plate (the concentration of human recombinant CyP being adjusted so that the reaction rate is increased by a factor of 3 as compared to an uncatalyzed control reaction wherein the peptide substrate is degraded by chymotrypsin alone, in the absence of CyPA and test compound). Using a Beckman Multimek™ 96 automated 96-channel pipettor, 5 μL of test compound solution, or a DMSO blank, were added to each well for a 30 minute preincubation at 4° C. One hundred μL of chymotrypsin solution (1 mg/mL) were added to each well and the absorbance at 390 nm versus time was monitored for 9-10 minutes using a BioRad Ultramark plate reader maintained at 4° C. and the rate constants were determined from the absorbance versus time data files.
(§3) IC50 values which were obtained for representative compounds are presented in the following Table B. The cyclophilin utilized was a human recombinant CyPA. […] While CyP A was used in these examples, other CyP proteins can be substituted.

[3] = target: T2, recombinant rat CyPA-GST fusion protein (Rattus norvegicus, UniProt P10111); experiment: Rotamase (PPIase) inhibition, chymotrypsin-coupled cuvette assay, rat CyPA-GST fusion protein; assay type: biochemical; conditions: Table A, value with asterisk: recombinant rat CyPA-GST fusion protein
T2 construct: made in house; host or cells: E. coli BL21
T2 sequence (P10111 2-164): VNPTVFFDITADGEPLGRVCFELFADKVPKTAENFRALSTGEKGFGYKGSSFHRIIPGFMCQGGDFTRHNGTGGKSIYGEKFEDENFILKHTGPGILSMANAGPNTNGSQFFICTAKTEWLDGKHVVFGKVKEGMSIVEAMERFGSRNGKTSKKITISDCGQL

[4] = target: T2, recombinant rat CyPA-GST fusion protein; experiment: Semiautomated microtiter plate assay of rotamase activity inhibition, rat CyPA-GST fusion protein; assay type: biochemical; conditions: Table B, value with asterisk: recombinant rat CyPA-GST fusion protein
Experimental: as §1
The resulting fragment (573 base pairs) was cloned into pCRII and amplified. The CyP sequence was cut out with Sma1 and EcoR1 and cloned into the Sma1/EcoR1 sites in pGEX2TK (Pharmacia). This plasmid was transformed into BL21 E. coli cells for expression of the GST-CyPA fusion protein.
as §2, §3

[5] = tested on: nigrostriatal dopaminergic fibers; experiment: MPTP-lesioned mouse model of Parkinson's disease, striatal TH fiber density; assay type: in vivo, CD1 albino mice; conditions: for % protection of striatal tyrosine hydroxylase-immunoreactive fibres: 10 mg/kg s.c. once daily days 1-5, one hour prior to MPTP, perfused day seven

T1 sequence (P62937 whole entry): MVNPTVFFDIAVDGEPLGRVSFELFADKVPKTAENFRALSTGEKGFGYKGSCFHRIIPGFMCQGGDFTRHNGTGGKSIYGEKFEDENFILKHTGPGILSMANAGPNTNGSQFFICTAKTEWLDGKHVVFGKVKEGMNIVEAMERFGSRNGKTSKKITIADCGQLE

Row | Compound | IC50 [1] [nM] | IC50 [3] [nM] | further results
1 | S=C(Nc1cc(Cl)cc(Cl)c1)Nc1cc(NC(=S)Nc2cc(Cl)cc(Cl)c2)cc(Nc2ccccn2)c1 [Compound 13] | 456 |  | IC50 [2]: 1370 nM
2 | O=C(NNC(=O)c1cc(O)cc(NC(=O)c2cccc(C(F)(F)F)c2)c1)c1ccccc1 [Compound 15, 1-Benzoyl-2-{3-[(3-trifluoromethyl)phenyl]carbonylamino-5-hydroxy}benzoylhydrazine] | 18700 |  | IC50 [2]: 9100 nM
3 | O=C(Nc1cc(Cl)cc(Cl)c1)c1cc(COc2ccc(Cl)c(Cl)c2)cc(C(=O)Nc2cc(Cl)cc(Cl)c2)c1 [Compound 20, 1-[(3,4-dichlorophenyl)oxymethyl]-3,5-bis-[(3,5-dichlorophenyl)aminocarbonyl]benzene] | 153 |  | IC50 [2]: 499 nM
4 | N#Cc1ccccc1-c1ccc(COc2cc(C(=O)NCCc3ccc(Cl)c(Cl)c3)cc(C(=O)NCCc3ccc(Cl)c(Cl)c3)c2)cc1 [Compound 21, 1-[4-(2-cyanophenyl)benzy]loxy-3,5-bis{2-[(3,4-dichlorophenyl)ethyl]aminocarbonyl}benzene] | 490 |  | IC50 [2]: 1730 nM
5 | O=C(Nc1cc(Cl)cc(Cl)c1)Nc1ccc(Br)c(N(S(=O)(=O)c2cc(Cl)cc(Cl)c2)S(=O)(=O)c2cc(Cl)cc(Cl)c2)c1 [Compound 29, N-(3-{bis[(3,5-dichlorophenyl)sulfonyl]amino}-4-bromophenyl)[(3,5-dichlorophenyl)amino]formamide] |  | 10000 | 
6 | Nc1cc(CN2C(=O)c3ccccc3C2=O)cc(NC(=S)Nc2cc(Cl)cc(Cl)c2)c1 [Compound 31, 2-{[3-amino-5-({[(3,5-dichlorophenyl)amino]thioxomethyl}amino)phenyl]methyl}isoindoline-1,3-dione] | 1580 | 3530 | IC50 [4]: 6940 nM
7 | O=C(Nc1cc(Cl)c(Cl)c(Cl)c1)c1cc(OCc2ccc(Cl)c(Cl)c2)cc(C(=O)Nc2cc(Cl)c(Cl)c(Cl)c2)c1 [Compound 32, 1-(3,4-dichlorobenzyloxy)-3,5-bis-[(3,4,5-trichlorophenyl)aminocarbonyl]benzene] | 164 | 102 | IC50 [2]: 51.5 nM; IC50 [4]: 91.7 nM
8 | CN(C)c1ccc(Nc2ccc(NC(=S)Nc3cc(Cl)cc(Cl)c3)cc2NC(=S)Nc2cc(Cl)cc(Cl)c2)cc1 [Compound 35, [(3,5-dichlorophenyl)amino]{[5-({[(3,5-dichlorophenyl)amino]thioxomethyl}amino)-2-{[4-(dimethylamino)phenyl]amino}phenyl]amino}methane-1-thione] |  | 1310 | IC50 [4]: 353 nM
9 | S=C(Nc1cc(Cl)cc(Cl)c1)Nc1ccc(Nc2ccc(Cl)cc2)c(NC(=S)Nc2cc(Cl)cc(Cl)c2)c1 [Compound 36, [(3,5-dichlorophenyl)amino]{[3-({[(3,5-dichlorophenyl)amino]thioxo-methyl}amino)-4-[(4-chlorophenyl)amino]phenyl]amino}methane-1-thione] |  | 609 | 
10 | O=C(Nc1ccc(Cl)c(C(F)(F)F)c1)c1cccc(COc2cc(C(=O)Nc3ccc(Cl)c(C(F)(F)F)c3)cc(C(=O)Nc3ccc(Cl)c(C(F)(F)F)c3)c2)c1 [Compound 37, 3-{[(3-Trifluoromethyl-4-chlorophenyl)aminocarbonyl]benzyloxy}-1,5-bis-[(3-trifluoromethyl-4-chlorophenyl)aminocarbonyl]benzene] | 1200 |  | 
11 | O=C(Nc1cccc([N+](=O)[O-])c1)c1ccc(Br)c(C(=O)Nc2cccc([N+](=O)[O-])c2)c1 [Compound 41, {2-bromo-5-[N-(3-nitrophenyl)carbamoyl]phenyl}-N-(3-nitrophenyl) formamide] | 1370 |  | 
12 | S=C(Nc1cc(Cl)cc(Cl)c1)Nc1ccc(N2CCCCC2)c(NC(=S)Nc2cc(Cl)cc(Cl)c2)c1 [Compound 44] |  | 374 | % protection of striatal tyrosine hydroxylase-immunoreactive fibres [5]: 25.1%
13 | COc1ccc(NC(=S)Nc2cc(Cl)cc(Cl)c2)cc1COc1cc(Cl)cc(Cl)c1 [Compound 45, 1-[3-(3,5-Dichlorophenoxy)methyl-4-methoxyphenyl]-3-(3,5-dichlorophenyl)thiourea] |  | 609 | 
14 | (3-bromo-5-{N-[3-(trifluoromethyl)phenyl]carbamoyl}phenyl)-N-[3-(trifluoromethyl) phenyl]formamide [Compound 26] | 909 |  | IC50 [2]: 2540 nM

The next lines start with results.

Row | IC50 [1] [nM] | IC50 [3] [nM] | Compound | further results
15 | 297 |  | O=C(Nc1cccc(C(F)(F)F)c1)c1cc(/C=C/c2ccc3ccccc3c2)cc(C(=O)Nc2cccc(C(F)(F)F)c2)c1 [Compound 25, (5-(2-(2-naphthyl)vinyl)-3-{N-[3-(trifluoromethyl)phenyl]carbamoyl}phenyl)-N-[3-(trifluoromethyl)phenyl]formamide] | IC50 [2]: 2030 nM
16 |  | 707 | S=C(Nc1cc(Cl)cc(Cl)c1)Nc1cc(OCc2cccc3ccccc23)ccc1Br [Compound 33, [(3,5-Dichlorophenyl)amino]{[2-bromo-5-(naphthylmethoxy)phenyl]amino}methane-1-thione] | 
17 | 736 |  | O=C(Nc1ccc(Cl)c(Cl)c1)c1cccc(COc2cc(C(=O)Nc3ccc(Cl)c(Cl)c3)cc(C(=O)Nc3ccc(Cl)c(Cl)c3)c2)c1 [Compound 38, 3-{[(3,4-dichlorophenyl)aminocarbonyl]benzyloxy}-1,5-bis-[(3,4-dichloro-phenyl)aminocarbonyl]benzene] | 
18 |  | 230 | O=C(Nc1cccc(C(F)(F)F)c1)c1cc(OCc2ccc3ccccc3c2)cc(C(=O)Nc2cccc(C(F)(F)F)c2)c1 [Compound 42, 1,3-Bis[(3-trifluoromethylphenyl)aminocarbonyl]-5-[(2-naphthyl)methyloxy]benzene] | % protection of striatal tyrosine hydroxylase-immunoreactive fibres [5]: 44.1%; striatal TH fiber density ([5]; regeneration protocol: MPTP days 1-5, compound once daily on days 8-12, perfused day 18): 88%
19 |  | 3770 | COc1ccc(NC(=S)NC(=O)c2ccccc2)cc1COc1cc(Cl)cc(Cl)c1 [Compound 46, 1-[3-(3,5-Dichlorophenoxy)methyl-4-methoxyphenyl]-3-benzoylthiourea] | 
20 |  | 1220 | COc1ccc(NC(=O)c2cccc3ccccc23)cc1OCc1cccc2ccccc12 [Compound 47, N-[4-methoxy-3-(naphthylmethoxy)phenyl]naphthylformamide] | 
21 |  | 1190 | COc1ccc(NC(=O)Cc2cccc3ccccc23)cc1OCc1cccc2ccccc12 [Compound 48, N-[4-methoxy-3-(naphthylmethoxy)phenyl]-2-naphthylethanamide] | 
22 |  | 1020 | COc1ccc(NC(=O)C(c2ccccc2)c2ccccc2)cc1OCc1cccc2ccccc12 [Compound 49, N-[4-methoxy-3-(naphthylmethoxy)phenyl]-2,2-diphenylethanamide] | 
23 |  | 978 | COc1ccc(NS(=O)(=O)c2cccc3ccccc23)cc1OCCc1cccc2ccccc12 [Compound 50] | 
24 |  | 1550 | O=C(Nc1ccc(Cl)c(C(=O)c2ccccc2)c1)c1cc(Cl)cc(Cl)c1 [Compound 51, (3,5-Dichlorophenyl)-N-[4-chloro-3-(phenylcarbonyl)phenyl]formamide] | 
25 |  | 861 | O=C(Nc1cc(S(=O)(=O)NC(c2ccccc2)c2ccccc2)ccc1Cl)c1cc(Cl)cc(Cl)c1 [Compound 52, (3,5-Dichlorophenyl)-N-(5-{[(diphenylmethyl)amino]sulfonyl}-2-chlorophenyl)formamide] | 
